Data on 3 compounds can be found in patent publication US9771341B2, “Piperazine carbamates and methods of making and using same” (Abide Therapeutics, Inc., priority 2015, dated 2017).

For test [1], the target named is T1, MAGL (Mus musculus, UniProt O35678).
T1 construct: Proteomes (mouse brain membrane fraction or cell lysates); from tissue; host or cells: mouse brain membrane fraction (or unspecified cell lysates)
T1 sequence (O35678 1-303): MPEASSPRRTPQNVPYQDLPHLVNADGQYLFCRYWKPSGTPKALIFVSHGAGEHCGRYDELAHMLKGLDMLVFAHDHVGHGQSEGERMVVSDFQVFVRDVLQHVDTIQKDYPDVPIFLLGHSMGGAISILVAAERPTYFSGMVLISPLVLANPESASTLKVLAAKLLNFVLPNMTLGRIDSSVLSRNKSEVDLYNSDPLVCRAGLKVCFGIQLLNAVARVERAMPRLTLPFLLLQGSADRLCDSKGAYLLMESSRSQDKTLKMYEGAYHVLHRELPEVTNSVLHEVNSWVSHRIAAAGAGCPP
In words: Mouse brain proteomes from inhibitor treated mice, MAGL. The format is in vivo. Conditions: 5 mg/kg oral gavage, C57Bl/6J mice, brain proteome 4 h after administration. The protocol: (§1) Preparation of Mouse Brain Proteomes from Inhibitor Treated Mice.
(§2) Inhibitors were administered to wild-type C57Bl/6J by oral gavage in a vehicle of polyethylene glycol.

Test [2] deals with T2, ABHD6 (Mus musculus, UniProt Q8R2Y0).
T2 construct: Proteomes (mouse brain membrane fraction or cell lysates); from tissue; host or cells: mouse brain membrane fraction (or unspecified cell lysates)
T2 sequence (Q8R2Y0 1-336): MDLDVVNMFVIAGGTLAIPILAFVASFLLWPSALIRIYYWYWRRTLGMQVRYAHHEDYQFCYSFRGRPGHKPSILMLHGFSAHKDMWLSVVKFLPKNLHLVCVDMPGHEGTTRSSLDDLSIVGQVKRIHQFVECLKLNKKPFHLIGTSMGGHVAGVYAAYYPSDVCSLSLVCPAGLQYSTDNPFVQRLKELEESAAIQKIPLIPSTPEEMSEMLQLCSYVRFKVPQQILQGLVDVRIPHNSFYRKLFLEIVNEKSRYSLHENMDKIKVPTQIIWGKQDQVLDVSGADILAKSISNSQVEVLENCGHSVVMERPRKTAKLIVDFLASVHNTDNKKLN
In words: In vitro competitive activity-based protein profiling (mouse), ABHD6. Conditions: for inhibition at 1 µM: mouse proteome, in vitro, read-out: % Inhibition at 1 μM ABHD6; for IC50: mouse brain membrane fraction or cell lysates, 30 min preincubation at 37° C, FP-Rh probe. The format is biochemical. The protocol: (§3) In Vitro Competitive Activity-Based Protein Profiling (Mouse).
(§4) Proteomes (mouse brain membrane fraction or cell lysates) (50 μL, 1.0 mg/mL total protein concentration) were preincubated with varying concentrations of inhibitors at 37° C. After 30 min, FP-Rh (1.0 μL, 50 μM in DMSO) was added and the mixture was incubated for another 30 min at 37° C. Reactions were quenched with SDS loading buffer (50 μL-4×) and run on SDS-PAGE.

The target of test [3] is T1, MAGL. As to the kind of experiment: In vitro competitive activity-based protein profiling (mouse), MAGL. The format is biochemical. As to conditions: for inhibition at 1 µM: mouse proteome, in vitro, read-out: % Inhibition at 1 μM MAGL; for IC50: mouse brain membrane fraction or cell lysates, 30 min preincubation at 37° C, FP-Rh probe. The protocol:
as §3, §4

The target in test [4] is T3, FAAH (Mus musculus, UniProt O08914).
T3 construct: Proteomes (mouse brain membrane fraction or cell lysates); from tissue; host or cells: mouse brain membrane fraction (or unspecified cell lysates)
T3 sequence (O08914 1-579): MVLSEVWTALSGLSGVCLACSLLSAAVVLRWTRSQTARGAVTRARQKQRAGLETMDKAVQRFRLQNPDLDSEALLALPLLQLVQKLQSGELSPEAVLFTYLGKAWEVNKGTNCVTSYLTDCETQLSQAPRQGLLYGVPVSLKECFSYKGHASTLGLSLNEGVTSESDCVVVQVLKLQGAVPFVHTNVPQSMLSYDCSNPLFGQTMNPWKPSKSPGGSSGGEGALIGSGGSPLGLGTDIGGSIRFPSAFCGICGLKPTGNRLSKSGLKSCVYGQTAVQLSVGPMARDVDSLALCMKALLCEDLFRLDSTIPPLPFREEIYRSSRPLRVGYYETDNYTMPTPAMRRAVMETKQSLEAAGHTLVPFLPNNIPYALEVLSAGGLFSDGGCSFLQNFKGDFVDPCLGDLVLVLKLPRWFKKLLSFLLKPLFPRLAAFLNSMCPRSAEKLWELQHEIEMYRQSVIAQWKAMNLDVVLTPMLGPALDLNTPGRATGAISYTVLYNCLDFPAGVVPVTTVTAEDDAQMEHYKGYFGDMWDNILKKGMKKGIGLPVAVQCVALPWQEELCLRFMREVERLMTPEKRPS
As to the kind of experiment: Mouse brain proteomes from inhibitor treated mice, FAAH. The class given is in vivo. As to conditions: 5 mg/kg oral gavage, C57Bl/6J mice, brain proteome 4 h after administration. The protocol:
as §1
Inhibitors were administered to wild-type C57Bl/6J by oral gavage in a vehicle of polyethylene glycol. Each animal was sacrificed 4 h following administration and brain proteomes were prepared and analyzed according to previously established methods (See Niphakis, M. J., et al. (2011) ACS Chem. Neurosci. and Long, J. Z., et al. Nat. Chem. Biol. 5:37-44)

Test [5] addresses T2, ABHD6. In words: Mouse brain proteomes from inhibitor treated mice, ABHD6. The class given is in vivo. As to conditions: 5 mg/kg oral gavage, C57Bl/6J mice, brain proteome 4 h after administration. The protocol:
as §1, §2

The target in test [6] is T3, FAAH. In words: In vitro competitive activity-based protein profiling (mouse), FAAH. The format is biochemical. As to conditions: for inhibition at 1 µM: mouse proteome, in vitro; for IC50: mouse brain membrane fraction or cell lysates, 30 min preincubation at 37° C, FP-Rh probe. The gist of the method: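 Competitive ABPP: inhibitor exposure (30 min, 37° C) of mouse brain membrane or lysate proteome at 1.0 mg/mL, then labelling with FP-Rh for another 30 min. Activity quantified by in-gel fluorescence of FAAH bands after SDS-PAGE.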

`O=C(OC(C(F)(F)F)C(F)(F)F)N1CCN(Cc2ccc(C(F)(F)F)cc2N2CCC(CO)CC2)CC1` [Example 74, 1,1,1,3,3,3-hexafluoropropan-2-yl 4-(2-(4-(hydroxymethyl)piperidin-1-yl)-4-(trifluoromethyl)benzyl)piperazine-1-carboxylate]: the inhibition – broadly, how much of the control response was suppressed – at 5 mg/kg in test [1] was 25 to 75%; in test [4] it was below 25%; in test [5], below 25%. The inhibition at 1 µM in test [2] was below 25%; in test [3] it was above 75%; in test [6], below 25%. The IC50 (commonly the concentration that inhibits the measured activity by half) was above 1000 nM in test [2], below 100 nM in test [3] and above 1000 nM in test [6].

Regarding `O=C(O)C1CN(c2cc(C(F)(F)F)ccc2CN2CCN(C(=O)OC(C(F)(F)F)C(F)(F)F)CC2)CCO1` (stereo not drawn) [Example 75, 4-(2-((4-(((1,1,1,3,3,3-hexafluoropropan-2-yl)oxy)carbonyl)piperazin-1-yl)methyl)-5-(trifluoromethyl)phenyl)morpholine-2-carboxylic acid], the inhibition at 5 mg/kg in test [1], in test [4] and in test [5] was below 25% in each case. Further, the values for the inhibition at 1 µM in test [2], in test [3] and in test [6] were below 25%, above 75% and below 25%, respectively. In addition, the IC50 in test [2] is above 1000 nM; in test [3], below 100 nM; in test [6], above 1000 nM.

Regarding `O=C(O)[C@@H]1CCCN1c1cc(CN2CCN(C(=O)OC(C(F)(F)F)C(F)(F)F)CC2)cc(C(F)(F)F)c1` [Example 86, (3-((4-(((1,1,1,3,3,3-hexafluoropropan-2-yl)oxy)carbonyl)piperazin-1-yl)methyl)-5-(trifluoromethyl)phenyl)proline], the inhibition at 5 mg/kg was above 75% in test [1], below 25% in test [4] and above 75% in test [5]. In addition, the inhibition at 1 µM in test [2] is 25 to 75%; in test [3], above 75%; in test [6], below 25%. Moreover, the IC50 was 100 to 1000 nM in test [2], 100 to 1000 nM in test [3] and above 1000 nM in test [6].
